{"source": "paper PMC5315062", "about": "(Oncology and Therapy, 2016)", "key": {"[1]": {"experiment": "Stability of ponatinib in rat bio-samples under different storage conditions", "format": "in vitro ADME", "details": "rat plasma, urine, feces; all RE (%) and RSD (%) below 15%"}, "[2]": {"system": "BCR–ABL1", "details": "cited from earlier work"}, "[3]": {"experiment": "Single-dose pharmacokinetics of ponatinib in rats", "format": "in vivo, Sprague–Dawley rats", "details": "rat; for half-life: T 1/2, rat; for Tmax: T max"}, "[4]": {"experiment": "Toxicity and mortality after repeated intragastric administration in rats", "format": "in vivo"}, "[5]": {"experiment": "Tissue distribution in rats after i.g. 15.0 mg/kg", "format": "in vivo, Sprague–Dawley rats", "details": "for exposure in lung and thyroid: rat, 3, 9, 24 h"}, "[6]": {"details": "in vitro; large decrease in solubility with increasing pH; cited from earlier work"}, "[7]": {"experiment": "Single- versus multi-dose", "details": "rat"}, "[8]": {"details": "healthy subjects, meal within 30 min prior to single oral administration; cited from earlier work"}, "[9]": {"details": "both, Sprague-Dawley, plasma, iv, 3 mg/kg"}, "[10]": {"details": "both, Sprague-Dawley, plasma, po, 7.5 mg/kg"}, "[11]": {"details": "both, Sprague-Dawley, plasma, po, 7.5 mg/kg, i.g. 7.5 mg/kg"}, "[12]": {"details": "both, Sprague-Dawley, plasma, po, 15 mg/kg"}, "[13]": {"details": "both, Sprague-Dawley, plasma, po, 15 mg/kg, i.g. 15.0 mg/kg"}, "[14]": {"details": "both, Sprague-Dawley, plasma, po, 30 mg/kg"}, "[15]": {"details": "both, Sprague-Dawley, plasma, po, 30 mg/kg, i.g. 30.0 mg/kg"}, "[16]": {"details": "both, Sprague-Dawley, in vivo, po, 3.75 mg/kg"}, "[17]": {"details": "i.g. 3.75 mg/kg once a day for 7 days (multi-dose)"}}, "note": "“Also recorded” adds a separate entry of the source.", "data": [{"smiles": "Cc1ccc(C(=O)Nc2ccc(CN3CCN(C)CC3)c(C(F)(F)F)c2)cc1C#Cc1cnc2cccnn12", "note": "[ponatinib, Ponatinib]", "values": [{"measurement": "stability under various storage conditions", "setting": "[1]", "result": "stable"}, {"measurement": "concentration at which BCR–ABL1 is inhibited", "setting": "[2]", "result": "above 40 nmol/L"}, {"measurement": "AUC(0-inf)", "setting": "[3]; [9]", "result": "2180 ± 462", "unit": "ng·h/mL"}, {"measurement": "MRT", "setting": "[3]; [9]", "result": "9.77 ± 0.66", "unit": "h"}, {"measurement": "clearance", "setting": "[3]; [9]", "result": 23.8, "unit": "mL/min/kg"}, {"measurement": "concentration at 5 min", "setting": "[3]; [9]", "result": "281 ± 129", "unit": "ng/mL"}, {"measurement": "half-life", "setting": "[3]; both, Sprague-Dawley, plasma, iv, 3 mg/kg, i.v. 3.0 mg/kg", "result": "6.17 ± 0.95", "unit": "h"}, {"measurement": "AUC(0-inf)", "setting": "[3]; [10]", "result": "1910 ± 353", "unit": "ng·h/mL"}, {"measurement": "Cmax", "setting": "[3]; [10]", "result": "104 ± 23.4", "unit": "ng/mL"}, {"measurement": "MRT", "setting": "[3]; [10]", "result": "16.4 ± 1.25", "unit": "h"}, {"measurement": "half-life", "setting": "[3]; [11]", "result": "10.9 ± 1.06", "unit": "h"}, {"measurement": "Tmax", "setting": "[3]; [11]", "result": "8.4 ± 2.19", "unit": "h"}, {"measurement": "AUC(0-inf)", "setting": "[3]; [12]", "result": "5030 ± 1010", "unit": "ng·h/mL"}, {"measurement": "Cmax", "setting": "[3]; [12]", "result": "285 ± 69", "unit": "ng/mL"}, {"measurement": "MRT", "setting": "[3]; [12]", "result": "16.7 ± 2.74", "unit": "h"}, {"measurement": "half-life", "setting": "[3]; [13]", "result": "9.7 ± 1.43", "unit": "h"}, {"measurement": "Tmax", "setting": "[3]; [13]", "result": "8.33 ± 0.82", "unit": "h"}, {"measurement": "AUC(0-inf)", "setting": "[3]; [14]", "result": "11600 ± 2890", "unit": "ng·h/mL"}, {"measurement": "Cmax", "setting": "[3]; [14]", "result": "638 ± 107", "unit": "ng/mL"}, {"measurement": "MRT", "setting": "[3]; [14]", "result": "16.5 ± 2.36", "unit": "h"}, {"measurement": "half-life", "setting": "[3]; [15]", "result": "9.66 ± 0.81", "unit": "h"}, {"measurement": "Tmax", "setting": "[3]; [15]", "result": "7.67 ± 0.82", "unit": "h"}, {"measurement": "CL", "setting": "[3]; i.g. 7.5 mg/kg", "result": "67 ± 11.3", "unit": "mL/min/kg"}, {"measurement": "V", "setting": "[3]; i.g. 7.5 mg/kg", "result": "63.55 ± 14.02", "unit": "L/kg"}, {"measurement": "CL", "setting": "[3]; i.g. 15.0 mg/kg", "result": "51.2 ± 9.33", "unit": "mL/min/kg"}, {"measurement": "V", "setting": "[3]; i.g. 15.0 mg/kg", "result": "42.85 ± 5.01", "unit": "L/kg"}, {"measurement": "CL", "setting": "[3]; i.g. 30.0 mg/kg", "result": "45.3 ± 12.7", "unit": "mL/min/kg"}, {"measurement": "V", "setting": "[3]; i.g. 30.0 mg/kg", "result": "37.78 ± 9.26", "unit": "L/kg"}, {"measurement": "exposure in plasma in relation to dose", "setting": "[3]; i.g. 7.5, 15.0, 30.0 mg/kg", "result": "dose-dependent exposure"}, {"measurement": "V", "setting": "[3]; i.v. 3.0 mg/kg", "result": "12.93 ± 4.37", "unit": "L/kg"}, {"measurement": "toxicity", "setting": "[4]; 3.75 mg/kg consecutive administration for 7 days", "result": "Toxicity was displayed to some extent"}, {"measurement": "mortality", "setting": "[4]; repeated intragastric administration over 6 mg/kg", "result": "increased; also recorded: high mortality"}, {"measurement": "distribution into tissues of the body", "setting": "[5]; rat", "result": "distributed widely; also recorded: widely distributed"}, {"measurement": "level in stomach, intestine and liver", "setting": "[5]; rat", "result": "fairly low"}, {"measurement": "exposure in lung and thyroid", "setting": "[5]", "result": "highly exposed; also recorded: highest levels"}, {"measurement": "exposure in lung and thyroid", "setting": "[5]; listed as Ponatinib", "result": "highest exposure"}, {"measurement": "aqueous solubility", "setting": "[6]", "result": "pH-dependent"}, {"measurement": "Cmax", "setting": "[7]; [16]", "result": "129 ± 37.6", "unit": "ng/mL"}, {"measurement": "Cmax at 7 days", "setting": "[7]; [16]", "result": "189 ± 55.7", "unit": "ng/mL"}, {"measurement": "Tmax", "setting": "[7]; [16]", "result": "10 ± 2.19", "unit": "h"}, {"measurement": "Tmax at 7 days", "setting": "[7]; [16]", "result": "6.67 ± 3.01", "unit": "h"}, {"measurement": "half-life", "setting": "[7]; [16]", "result": "11.3 ± 1.46", "unit": "h"}, {"measurement": "half-life at 7 days", "setting": "[7]; [16]", "result": "10.9 ± 1.56", "unit": "h"}, {"measurement": "CL", "setting": "[7]; [17]", "result": "11.7 ± 1.83", "unit": "mL/min/kg"}, {"measurement": "V", "setting": "[7]; [17]", "result": "10.85 ± 1.49", "unit": "L/kg"}, {"measurement": "CL", "setting": "[7]; i.g. 3.75 mg/kg, single dose", "result": "29.8 ± 10.2", "unit": "mL/min/kg"}, {"measurement": "V", "setting": "[7]; i.g. 3.75 mg/kg, single dose", "result": "28.91 ± 9.47", "unit": "L/kg"}, {"measurement": "effect of a high- or low-fat meal on single-dose pharmacokinetics", "setting": "[8]", "result": "no effect"}]}]}
